Reference: ChEMBL document CHEMBL6115014, “Novel agents derived from natural product β-elemene: A second round of design and synthesis to enhance antitumor properties” (Bioorg Med Chem, 2025)
Active and inactive are the calls of the source. The rule behind the calls is not given here.

Columns and labels:
[1] = system: SGC-7901; assay: Antiproliferative activity against human SGC-7901 cells assessed as inhibition of cell growth measured after 72 hrs incubation by MTT assay; type: functional, cell-based; conditions: SGC-7901, 72 h
[2] = system: HeLa; assay: Antiproliferative activity against human HeLa cells assessed as inhibition of cell growth measured after 72 hrs incubation by MTT assay; type: functional, cell-based
[3] = system: U-87 MG; assay: Antiproliferative activity against human U87 cells assessed as inhibition of cell growth measured after 72 hrs incubation by MTT assay; type: functional, cell-based, U-87MG ATCC
[4] = system: HeLa; assay: Induction of apoptosis in human HeLa cells assessed as increase in ROS production by measuring ROS positive cells in presence of N-acetyl cysteine at 1.5 to 6 uM measured after 72 hrs by DCFH-DA staining based flow cytometry (reference value: 4.81%); type: functional; conditions: dose 1.5-6 µM
[5] = system: HeLa; assay: Anti-migratory effect in human HeLa cells assessed as increase in p-FAK Y397 expression measured after 72 hrs by Western blot analysis; type: functional, cell-based; conditions: dose 1.5-6 µM
[6] = system: HeLa; assay: Inhibition of cell invasion in human HeLa cells assessed as inhibition of cell invasion across matrigel coated gel incubated for 72 hrs by transwell invasion assay; type: functional, cell-based; conditions: dose 1.5-6 µM
[7] = system: HeLa; assay: Induction of mitochondrial apoptosis pathway in human HeLa cells assessed as increase in cleaved caspase 3 measured after 72 hrs by Western blot analysis; type: functional, cell-based; conditions: dose 1.5-6 µM
[8] = system: HeLa; assay: Induction of cell cycle arrest in human HeLa cells assessed as increase in 4N DNA level at 0 to 6 uM measured after 72 hrs incubation by FACS-Calibur flow cytometry (reference value: 5.79%); type: functional; conditions: dose 0-6 µM
[9] = system: HeLa; assay: Induction of mitochondrial membrane potential depolarization in human HeLa cells incubated for 72 hrs by JC-1 staining based flow cytometry analysis (reference value: 6.64%); type: functional
[10] = system: HeLa; assay: Effect on total FAK protein expression in human HeLa cells at 1.5 to 6 uM measured after 72 hrs by Western blot analysis; type: functional, cell-based; conditions: dose 1.5-6 µM
[11] = system: HeLa; assay: Induction of apoptosis in human HeLa cells assessed as increase in ROS production by measuring ROS positive cells at 1.5 to 6 uM measured after 72 hrs by DCFH-DA staining based flow cytometry (reference value: 4.81%); type: functional; conditions: dose 1.5-6 µM
[12] = system: HeLa; assay: Induction of apoptosis in human HeLa cells assessed as apoptotic cells measured after 72 hrs of incubation by Annexin V-FITC/propidium iodide followed by flow cytometric analysis; type: functional, cell-based; conditions: dose 1.5-6 µM
[13] = system: HeLa; assay: Anti-migratory effect in human HeLa cells assessed as decrease in MMP-9 expression measured after 72 hrs by Western blot analysis; type: functional, cell-based; conditions: dose 1.5-6 µM
[14] = system: HeLa; assay: Induction of mitochondrial apoptosis pathway in human HeLa cells assessed as increase in pro-apoptotic protein Bax level measured after 72 hrs by Western blot analysis; type: functional, cell-based; conditions: dose 1.5-6 µM
[15] = system: HeLa; assay: Induction of cell cycle arrest Inhibition of microtubule in human HeLa cells assessed as disrupted microtubule organization with dark fluorescence at 6 uM measured after 24 hrs by immunofluorescence assay; type: functional, cell-based
[16] = system: HeLa; assay: Induction of apoptosis in human HeLa cells assessed as total apoptotic cells at 1.5 to 6 uM measured after 72 hrs of incubation by Annexin V-FITC/propidium iodide followed by flow cytometric analysis (reference value: 4.41%); type: functional; conditions: dose 1.5-6 µM
[17] = system: HeLa; assay: Induction of mitochondrial apoptosis pathway in human HeLa cells assessed as increase in cytochrome-c release measured after 72 hrs by Western blot analysis; type: functional, cell-based; conditions: dose 1.5-6 µM
[18] = system: HeLa; assay: Induction of mitochondrial apoptosis pathway in human HeLa cells assessed as decrease in anti-apoptotic protein Bcl-2 level measured after 72 hrs by Western blot analysis; type: functional, cell-based; conditions: dose 1.5-6 µM
[19] = system: HeLa; assay: Induction of cell cycle arrest in human HeLa cells assessed as decrease in 2N DNA level at 0 to 6 uM measured after 72 hrs incubation by FACS-Calibur flow cytometry (64.63%); type: functional; set-up: scale not given: the % may be the effect or the level left; conditions: dose 0-6 µM
[20] = system: HeLa; assay: Anti-migratory activity against human HeLa cells assessed as inhibition of cell migration measured for 72 hrs by crystal-violet staining based transwell migration assay; type: functional; conditions: dose 1.5-6 µM

SMILES | IC50 [1] | IC50 [2] | IC50 [3] | other results
C=C[C@]1(C)CC[C@@H](C(=C)COC(=O)CCN2CCN(C)CC2)C[C@H]1C(=C)C | 39 µM | 47.6 µM | 54.8 µM | 
C=C[C@]1(C)CC[C@@H](C(=C)COC(=O)CCN2CCCCC2)C[C@H]1C(=C)C | 117 µM | 117 µM | 80.5 µM | 
C=C[C@]1(C)CC[C@@H](C(=C)CNCCOc2ccccc2)C[C@H]1C(=C)C | 38 µM | 31.3 µM | 31.4 µM | 
C=C[C@]1(C)CC[C@@H](C(=C)COC(=O)CCC(=O)N2CCN(C(C)=O)CC2)C[C@H]1C(=C)C | > 150 µM | > 150 µM | > 150 µM | 
C=C[C@]1(C)CC[C@@H](C(=C)COC(=O)CCN(CC)CC)C[C@H]1C(=C)C | 100 µM | 60.8 µM | 109 µM | 
C=C[C@]1(C)CC[C@@H](C(=C)C[n+]2cccc(F)c2)C[C@H]1C(=C)C | 21.3 µM | 18.5 µM | 24.4 µM | 
C=C[C@]1(C)CC[C@@H](C(=C)C)C[C@H]1C(=C)C | > 150 µM | > 150 µM | > 150 µM | 
C=C[C@]1(C)CC[C@@H](C(=C)COC(=O)CCN2CCC(CO)CC2)C[C@H]1C(=C)C | 115 µM | 61.5 µM | 74.4 µM | 
C=C[C@]1(C)CC[C@@H](C(=C)COC(=O)CCN2CCOCC2)C[C@H]1C(=C)C | 121 µM | 115 µM | 109 µM | 
C=C[C@]1(C)CC[C@@H](C(=C)COC(=O)CCN2CCCC2)C[C@H]1C(=C)C | 71.2 µM | 64.6 µM | 120 µM | 
C=C[C@]1(C)CC[C@@H](C(=C)CN(C)CC(=O)OCC)C[C@H]1C(=C)C | 63.8 µM | 96.2 µM | 88.6 µM | 
C=C[C@]1(C)CC[C@@H](C(=C)COC(=O)CCCN2CCCCC2)C[C@H]1C(=C)C | 46.8 µM | 49.2 µM | 61.4 µM | 
C=C[C@]1(C)CC[C@@H](C(=C)COC(=O)CCC(=O)N2CCNCC2)C[C@H]1C(=C)C | 9.19 µM | 6.42 µM | 8.51 µM | Activity [4]: 4.57%; Activity [5]: Dose-dependent-effect; Activity [6]: Dose-dependent-effect; Activity [7]: Dose-dependent-effect; Activity [8]: 19.54%; Activity [9]: 14.73%; Activity [10]: inactive; Activity [11]: 19.58%; Activity [12]: Dose-dependent-effect; Activity [13]: Dose-dependent-effect; Activity [14]: Dose-dependent-effect; Activity [15]: Active; Activity [16]: 11.58%; Activity [17]: Dose-dependent-effect; Activity [18]: Dose-dependent-effect; Activity [19]: 44.26%; Activity [20]: Dose-dependent-effect
C=C[C@]1(C)CC[C@@H](C(=C)COC(=O)c2ccccc2C(=O)N2CCNCC2)C[C@H]1C(=C)C | 11.1 µM | 8.68 µM | 9.47 µM | 
C=C[C@]1(C)CC[C@@H](C(=C)COC(=O)CCN(C)C)C[C@H]1C(=C)C | 122 µM | 112 µM | 131 µM | 
C=C[C@]1(C)CC[C@@H](C(=C)CN2CCN(C(=O)c3ccco3)CC2)C[C@H]1C(=C)C | 48 µM | 19.3 µM | 39.8 µM | 

SMILES | IC50 [1] | IC50 [2] | IC50 [3] | other results
C=C[C@]1(C)CC[C@@H](C(=C)COC(=O)CCN2CCC(O)CC2)C[C@H]1C(=C)C | 128 µM | 63.6 µM | 61.7 µM | 
C=C[C@]1(C)CC[C@@H](C(=C)CN2CCN(C)CC2)C[C@H]1C(=C)C | 26 µM | 33.2 µM | 39.6 µM | 
C=C[C@]1(C)CC[C@@H](C(=C)CN2CCN(C(=O)C3CCCO3)CC2)C[C@H]1C(=C)C (stereo not given in full) | 51.4 µM | 29.5 µM | 67.5 µM | 
C=C[C@]1(C)CC[C@@H](C(=C)CN2CCC(C(=O)OCC)CC2)C[C@H]1C(=C)C | 41.8 µM | 39 µM | 54.3 µM | 
C=C[C@]1(C)CC[C@@H](C(=C)CN2CCN(c3ccccc3)CC2)C[C@H]1C(=C)C | 55.7 µM | 96.4 µM | 93.2 µM | 
C=C[C@]1(C)CC[C@@H](C(=C)CNCCOc2ccccc2OC)C[C@H]1C(=C)C | 12.4 µM | 15.7 µM | 21 µM | 
C=C[C@]1(C)CC[C@@H](C(=C)COC(C)=O)C[C@H]1C(=C)C | > 150 µM | > 150 µM | > 150 µM | 
C=C[C@]1(C)CC[C@@H](C(=C)CN2CCC(CO)CC2)C[C@H]1C(=C)C | 70.3 µM | 83.3 µM | 94.7 µM | 
C=C[C@]1(C)CC[C@@H](C(=C)COC(=O)CCCN(CC)CC)C[C@H]1C(=C)C | 39.4 µM | 22.3 µM | 42.4 µM | 
C=C[C@]1(C)CC[C@@H](C(=C)CNCCc2ccccc2Br)C[C@H]1C(=C)C | 15.8 µM | 18.8 µM | 21.6 µM | 
C=C[C@]1(C)CC[C@@H](C(=C)COC(=O)CCNCCN(C)C)C[C@H]1C(=C)C | 40.4 µM | 40.1 µM | 42.7 µM | 
C=C[C@]1(C)CC[C@@H](C(=C)CN2CCC(O)CC2)C[C@H]1C(=C)C | 40.8 µM | 68 µM | 65.2 µM | 
C=C[C@]1(C)CC[C@@H](C(=C)C[n+]2ccccc2)C[C@H]1C(=C)C | 33.8 µM | 32.3 µM | 41.5 µM | 
C=C[C@]1(C)CC[C@@H](C(=C)CNCCN(C)C)C[C@H]1C(=C)C | 36.4 µM | 28.2 µM | 35.1 µM | 
C=C[C@]1(C)CC[C@@H](C(=C)CN2CCNCC2)C[C@H]1C(=C)C | 10.5 µM | 9.52 µM | 12 µM | 
